What was measured:
[1] = system: B104 cells; assay: Cell survival control, B104 cells; format: cell-based, rat
Source text: (§1) The 4-3.6 cells are B104 cells stably transfected with human trkA cDNA, and express equal levels of p75 and TrkA (TrkA+ p75+). For screening agents that activate or antagonize TrkC receptors, NIH3T3 fibroblasts were stably transfected with human TrkC cDNA. These cells respond to the ligand NT-3. For screening agents that activate or antagonize TrkA receptors, NIH3T3 fibroblasts were stably transfected with human TrkA cDNA. These cells respond to the ligand NGF.
(§2) Cell lines: 5,000 cells/well in protein-free media (PFHM-II, GIBCO, Toronto) containing 0.2% bovine serum albumin (BSA) (Crystalline fraction V, Sigma, St. Louis, Mo.) were seeded in 96 well plates (Falcon, Mississauga, Ontario). The cultures were untreated, or treated with the indicated test or control ligands. Cell viability was quantitated using the MTT assay after 56-72 hours of culture. […] The OD of untreated cells were subtracted. The higher optical density of untreated primary cultures is likely due to cellular heterogeneity and to endogenous production of limiting amounts of growth factors.

[2] = physchem; conditions: water
[3] = system: TrkB-expressing HEK293 cells; assay: Cell survival control, TrkB-expressing HEK293 cells; format: cell-based
Protocol: as §2

[4] = system: wild type HEK293 cells; assay: Cell survival control, wild type HEK293 cells; format: cell-based
Protocol: as §2

[5] = Enhancement of trophic effect of EGF; format: cell-based
[6] = target: T1, NIH3T3 fibroblasts expressing TrkA (Homo sapiens, UniProt P04629); assay: Cell survival (MTT), NIH-TrkA; format: cell-based; conditions: for NIH-TrkA % Protection: 72 hours;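 on NIH-TrkA % Protection: 100% equals survival with optimal NGF at 1 nM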
T1 construct: expressed in transfected cells; host or cells: NIH3T3 fibroblasts
T1 sequence (P04629 33-796): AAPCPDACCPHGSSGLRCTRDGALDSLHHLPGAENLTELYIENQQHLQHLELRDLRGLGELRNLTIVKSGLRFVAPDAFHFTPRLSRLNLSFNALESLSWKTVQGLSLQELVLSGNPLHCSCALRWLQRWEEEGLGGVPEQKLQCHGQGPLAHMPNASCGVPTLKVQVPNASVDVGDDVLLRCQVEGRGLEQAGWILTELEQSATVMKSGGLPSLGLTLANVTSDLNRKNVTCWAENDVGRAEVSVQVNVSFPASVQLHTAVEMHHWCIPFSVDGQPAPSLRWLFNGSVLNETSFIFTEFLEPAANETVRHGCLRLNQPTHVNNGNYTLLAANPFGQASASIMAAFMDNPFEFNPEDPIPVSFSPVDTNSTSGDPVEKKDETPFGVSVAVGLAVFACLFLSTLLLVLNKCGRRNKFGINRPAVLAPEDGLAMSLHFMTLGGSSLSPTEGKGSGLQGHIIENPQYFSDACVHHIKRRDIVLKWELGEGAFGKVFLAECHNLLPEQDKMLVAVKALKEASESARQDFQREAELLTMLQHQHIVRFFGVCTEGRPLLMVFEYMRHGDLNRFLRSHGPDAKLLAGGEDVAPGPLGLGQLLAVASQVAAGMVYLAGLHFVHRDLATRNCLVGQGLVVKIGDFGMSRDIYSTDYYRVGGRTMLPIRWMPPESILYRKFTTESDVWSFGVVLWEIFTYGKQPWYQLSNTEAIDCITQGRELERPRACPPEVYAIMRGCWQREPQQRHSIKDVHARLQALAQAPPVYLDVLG
Source text: as §1, with “These cells respond to the ligand NT-3.” left out, “cDNA.” for “cDNA. These cells respond to the ligand NGF.”
as §2, with “subtracted.” for “subtracted. The higher optical density of untreated primary cultures is likely due to cellular heterogeneity and to endogenous production of limiting amounts of growth factors.”

[7] = target: T2, NIH3T3 fibroblasts expressing TrkC (Homo sapiens, UniProt Q16288); assay: Cell survival (MTT), NIH-TrkC; format: cell-based; conditions: for NIH-TrkC % Protection: 72 hours
T2 construct: expressed in transfected cells; host or cells: NIH3T3 fibroblasts
T2 sequence (Q16288 32-839): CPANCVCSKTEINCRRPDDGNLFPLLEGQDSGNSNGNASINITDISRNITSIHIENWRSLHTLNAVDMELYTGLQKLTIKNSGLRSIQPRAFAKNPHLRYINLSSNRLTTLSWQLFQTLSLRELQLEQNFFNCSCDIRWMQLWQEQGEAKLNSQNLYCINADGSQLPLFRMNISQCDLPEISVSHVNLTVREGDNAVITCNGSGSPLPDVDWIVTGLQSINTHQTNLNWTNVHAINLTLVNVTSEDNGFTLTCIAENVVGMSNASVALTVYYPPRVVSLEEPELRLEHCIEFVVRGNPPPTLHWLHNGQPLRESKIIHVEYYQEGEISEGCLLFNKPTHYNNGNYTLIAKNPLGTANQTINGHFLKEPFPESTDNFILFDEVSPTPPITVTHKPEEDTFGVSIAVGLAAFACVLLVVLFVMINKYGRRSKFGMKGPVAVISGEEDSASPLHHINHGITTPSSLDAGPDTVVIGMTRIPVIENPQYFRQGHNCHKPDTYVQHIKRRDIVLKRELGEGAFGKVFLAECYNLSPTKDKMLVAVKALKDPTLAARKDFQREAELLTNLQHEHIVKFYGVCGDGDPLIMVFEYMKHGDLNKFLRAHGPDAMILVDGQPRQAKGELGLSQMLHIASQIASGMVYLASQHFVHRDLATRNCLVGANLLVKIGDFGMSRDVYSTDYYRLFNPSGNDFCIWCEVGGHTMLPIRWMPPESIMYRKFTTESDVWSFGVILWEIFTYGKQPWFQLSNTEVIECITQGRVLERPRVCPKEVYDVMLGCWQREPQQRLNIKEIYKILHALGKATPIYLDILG
Source text: as §1, §2

[8] = system: B104 cells (p75+ TrkA-); assay: FACScan binding of D3-biotin to B104 cells; set-up: species or system rat; conditions: D3-biotin 20 μM + D3 200 μM as competitor
[9] = target: T3, HEK 293 cells expressing TrkB/TrkA IgG-C2 chimeric receptor (Homo sapiens, UniProt P04629+Q16620); assay: Cell survival (MTT), HEK 293-TrkB/TrkA IgG-C2 chimera; format: cell-based; conditions: HEK 293-TrkB/TrkA chimera, 72 hours;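 on % Protection: 100% equals survival with optimal NGF at 1 nM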
T3 construct: The IgG-C2 domain of human TrkA was generated using unique restriction sites; expressed in transfected cells
T3 sequence (P04629 299-365 limits assumed, change not shown, one chain of several): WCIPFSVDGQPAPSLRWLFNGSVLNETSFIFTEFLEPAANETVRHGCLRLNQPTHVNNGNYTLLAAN
Source text: The IgG-C2 domain of human TrkA was generated using unique restriction sites in the primers to allow exchange with the corresponding rat TrkB domain. The chimeric receptors were constructed by subcloning the human TrkA IgG-C2 domain into the corresponding restriction sites of the rat trkB cDNA reported in a previous work (Perez et al., 1995). Chimeric constructs were confirmed by sequencing, and were cloned into the pCDNA3 expression vector that contains a selection gene providing resistance to neomycin (G418, GIBCO). HEK293 cells were transfected using the lipofectamine plus method (GIBCO), selected with neomycin (0.5 mg/ml) and at least 3 independent subclones were obtained by limiting dilution techniques (293-TrkB/A-IgC2 chimera).
as §2, with “subtracted.” for “subtracted. The higher optical density of untreated primary cultures is likely due to cellular heterogeneity and to endogenous production of limiting amounts of growth factors.”

[10] = target: T4, TrkA-ECD (Homo sapiens, UniProt P04629); assay: ELISA and RIA binding assays of NGF•TrkA-ECD
T4 construct: pure soluble TrkA extracellular domain (TrkA-ECD) produced in baculovirus; made in house
T4 sequence (P04629 33-423 limits assumed): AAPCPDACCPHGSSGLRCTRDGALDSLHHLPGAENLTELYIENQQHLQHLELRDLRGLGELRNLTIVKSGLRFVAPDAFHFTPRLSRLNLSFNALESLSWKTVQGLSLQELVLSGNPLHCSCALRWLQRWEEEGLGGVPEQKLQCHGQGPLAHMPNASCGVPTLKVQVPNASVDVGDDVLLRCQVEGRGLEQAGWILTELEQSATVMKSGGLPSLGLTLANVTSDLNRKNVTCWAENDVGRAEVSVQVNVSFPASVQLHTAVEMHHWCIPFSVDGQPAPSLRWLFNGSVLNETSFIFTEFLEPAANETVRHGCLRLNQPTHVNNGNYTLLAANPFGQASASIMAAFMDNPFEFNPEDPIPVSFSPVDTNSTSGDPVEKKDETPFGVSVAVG

[11] = system: 4-3.6 cells (p75+TrkA+); assay: Cell survival (MTT), 4-3.6 cells; format: cell-based, rat; conditions: 72 hours;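 on % Protection: 100% equals survival with optimal NGF at 1 nM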
Source text: as §1, §2

[12] = target: T5, cell surface TrkA (4-3.6 cells, p75+ TrkA+) (Homo sapiens, UniProt P04629); assay: FACScan binding of D3-biotin to 4-3.6 cells
T5 construct: expressed in transfected cells
T5 sequence (P04629 33-796): as the sequence (P04629 33-796) above
Source text: as §1
FACScan binding assays: 4-3.6 cells (2×10^5) in FACScan binding buffer (PBS, 0.5% BSA, and 0.1% NaN3) were immunostained as described (Saragovi et al., 1998). Saturating anti-TrkA mAb 5C3, or anti-p75 mAb MC192, or control non-binding IgGs were added to cells for 1 hour at 4° C., in the presence or absence of D3 as competitor. Excess primary antibody was washed off, and cells were immunostained with fluorescinated goat-anti-mouse IgG secondary antibody. Cells were acquired on a FACScan and mean channel fluorescence of bell-shaped histograms were analyzed using the LYSIS II program.
FACScan analysis featuring the secondary fluorescent agent avidin-FITC was used to detect binding of D3-biotin to the cell surface (Table 1). The 4-3.6 cells (p75+TrkA+) had fluorescence approximately 4 times greater for D3-biotin than for a background control peptide-biotin.

Q: Which results are given for `NCCCC[C@@H]1NC(=O)[C@H](CCC(=O)O)NC(=O)c2cc([N+](=O)[O-])ccc2OCCC(C(=O)NCC(=O)O)NC1=O` (some centres unmarked) [D3, EKHse-G-OH]?
A: protection from apoptosis [1]: neither D3 nor NGF protected; solubility [2]: ≥ 5000 µg/mL; protection from apoptosis [3]: neither D3 nor NGF protected; protection from apoptosis [4]: neither D3 nor NGF protected; enhancement of the trophic effect of EGF [5]: did not enhance; enhancement of NGF protection ([6]; NIH3T3 cells stably transfected with TrkA cDNA): enhanced NGF protection; NIH-TrkA % Protection ([6]; agent 10 μM + 10 pM NGF): 51 ± 5%; NIH-TrkA % Protection ([6]; agent 10 μM alone): 8 ± 4%; enhancement of NT-3 protection ([7]; NIH3T3 cells stably transfected with trkC cDNA): did not enhance NT-3 protection; NIH-TrkC % Protection ([7]; agent 10 μM + 10 pM NGF): 6 ± 2%; NIH-TrkC % Protection ([7]; agent 10 μM alone): 3 ± 3%; MCF (mean channel fluorescence) [8]: 11 ± 2; % Protection ([9]; compound 10 μM + 10 pM NGF): 42 ± 5%; Optical Density ([9]; compound 10 μM + 10 pM NGF): 165 ± 11; % Protection ([9]; compound 10 μM alone): 9 ± 3%; Optical Density ([9]; compound 10 μM alone): 69 ± 7; blocking of NGF•TrkA-ECD interactions [10]: did not substantially block; % Protection ([11]; compound 10 μM + 10 pM NGF): 55 ± 3%; Optical Density ([11]; compound 10 μM + 10 pM NGF): 255 ± 14; % Protection ([11]; compound 10 μM alone): 8 ± 2%; Optical Density ([11]; compound 10 μM alone): 95 ± 9; competition of D3-biotin binding ([12]; 10-fold molar excess of D3): abolished binding of D3-biotin; MCF (mean channel fluorescence) ([12]; D3-biotin 20 μM + D3 200 μM as competitor): 17 ± 7
